Literature values as cited in patent US8905760B2, “Methods and systems for progressively treating and controlling oral periopathogens causing systemic inflammations” (priority 2008, dated 2014).
Structures can show the parent of a compound that is named as a salt.

Conditions: IPT group: standard periodontal therapy with adjunctive local delivery of minocycline-HCl (Arestin); N=20; P<0.0001, t test

CN(C)c1ccc(O)c2c1C[C@H]1C[C@H]3[C@H](N(C)C)C(O)=C(C(N)=O)C(=O)[C@@]3(O)C(O)=C1C2=O [minocycline-HCl]
reduction of periodontal lesions after therapy (mean difference): 60±23
